Reference: patent publication US4423029A, “(S)-3-Amino-4-[(S,S)-1-(1-hydroxyethyl)alkyl amino]-4-oxo-butyric acid compounds suitable as non-nutritive sweetners” (The Procter & Gamble Company, priority 1981, dated 1983)
Converted amounts (≈) assume the structure as drawn. “Also recorded” adds a separate entry of the source. Like-named read-outs stand apart in the source and are kept apart here. Residues, ends and D or L forms follow the SMILES beside them.

What was measured:
[1] = Amide bond cleavage by rat intestine homogenate; type: in vitro ADME; conditions: pH 7.0, 37° C., up to two hours, standardized to Aspartame/rat = 100
Source text: (§1) This aspartic acid has the same caloric value as sugar, on a per-gram basis. These aspartic acid amide sweeteners are therefore not non-nutritive, but, rather, low calorie. In addition, the other molecular fragment released as a result of amide cleavage is frequently a non-physiological amine. It was therefore considered appropriate to gauge the rate of amide cleavage of compound (II) by digestive enzymes in evaluating both the calorigenic and the toxicologic potential of compounds of this invention.
(§2) Assays were performed in the following manner:
(§3) Aliquots of four mM solutions of test compounds in 100 mM potassium phosphate buffer solution at pH 7.0 were incubated at 37° C. (98.6° F.) for up to two hours with a standardized amount of animal intestine homogenate containing digestive enzymes. At the end of the incubation period, the enzymes were inactivated by boiling and the extent of amide bond hydrolysis was quantified by measurement of free L-aspartic acid in the solution. This was done by incubating a sample of the test solution with enzymes and substrates that convert L-aspartate to L-malate with concomitant oxidation of a pyridine nucleotide having a characteristic absorbance at 340 nanometers. The decrease in optical density at this wavelength is proportional to the amount of L-aspartate generated by amide bond hydrolysis.

[2] = in words; cited from earlier work
[3] = Amide bond cleavage by monkey intestine homogenate; type: in vitro ADME; conditions: pH 7.0, 37° C., up to two hours, standardized to Aspartame/rat = 100
Source text: as §1, §2, §3

[4] = cited from earlier work; for half-life: pH 4
[5] = cited from earlier work; for taste: in words; for sweetness intensity: L-aspartic acid alkyl amides, Mazur et al. 1970
[6] = Taste evaluation (human taste panel, comparison with sucrose standards); type: in vivo, Male subjects; conditions: for taste / sweetness quality: in words
Experimental: The taste quality and sweetness intensity of the compounds of the present invention were determined by the following procedure.
Male subjects were selected at random from a group of about 20 persons who had previously been selected on the basis of proven tasting acuity, i.e., persons who could easily recognize the four basic tastes (sweet, sour, bitter and salty) and who were adept at quantifying their own physiological response numerically. The subjects were asked to taste and expectorate about 10 ml of a sample at about 22° C. containing dissolved test material. The subjects were then asked to compare the sweetness (and other taste qualities) of the test solution with four or five standard coded samples which contained increasing amounts of sucrose. Sweetness intensity of the unknown material was recorded by the subject making a mark on a coded closed linear scale at a point they considered equal in sweetness among the standards; interpolation between standards was encouraged. After completion of the panel, a four or five point (1-4 or 1-5, depending on the number of standards) numeric scale was superimposed on the coded linear scales to obtain numerical data; data were averaged and recorded to the nearest 0.25 unit. Equivalent sucrose sweetness was determined by referring to graphs of (w/v) sucrose concentration and standards versus a linear numeric scale.
Sweetness intensity was calculated by dividing the concentration (w/v) of perceived sweetness by the concentration (w/v) of test material required to produce that sweetness. Most taste comparisons were made in the range of 5-10% sucrose sweetness.
The five point scale with standards ranging from 1.37% (0.040 M) to 11.97% (0.35 M) sucrose usually sufficed to bracket the sweet intensity of a test sample. However, in the cases of beverage prototypes it was more meaningful to use prototype beverage solutions containing 2.5, 5.0, 10.0, 15.0 and 20.0% sucrose as standards. In all cases, evaluation of sweetness intensity in terms of sucrose equivalents was made with reference to graphs which related sucrose concentration and standard prototypes to the particular (arbitrary) scale units employed.
In tests in which taste quality was estimated, the subjects were asked to describe the initial taste and aftertaste in terms of percent sweet, sour, bitter, salty and "other", totalling 100%. In all tests, bottled spring water was used for rinsing between samples.

[7] = Aqueous solubility and calculated maximum effective sweetening power; type: physicochemical; conditions: for solubility / Calculated Maximum Effective Sweetening Power: approximate (~)
Experimental: The solubility of compound (II) was determined in standard fashion. Water at pH 7 and 20° C. was used, except where indicated.
Because sweetness tends to plateau at higher concentrations of high intensity sweeteners, these calculations overestimate the actual sweetening power of the compounds of this invention.

[8] = Resistance to hydrolysis by digestive enzymes (statement in words); type: in vitro ADME, animal
Source text: as §1, §2
as §3, with “hydrolysis. […]” for “hydrolysis.”

[9] = Hydrolytic stability in aqueous phosphate buffer; type: physicochemical; conditions: for half-life / remaining at 360 h: 0.02 m phosphate buffer; for half-life: 0.02 M phosphate; for remaining at 360 h: read-out: % Remaining After 15 Days
Experimental: Stability tests were performed on the compound of formula (II) to determine the sweetener's resistance to hydrolysis under varying conditions.
The tests were performed using solutions of (II) in aqueous phosphate buffer, 0.02 M, at pH 3.5 and 6.9. The solutions were incubated at ~43° C. (110° F.), ~54° C. (130° F.), and ~66° C., (150° F.) for up to 32 days.
Samples from the test solutions were withdrawn at regular intervals and analyzed by reversed-phase high performance liquid chromatography for remaining intact (II), using the following conditions:
Column: 25 cm×0.4 cm I.D. stainless steel packed with Lichrosorb RP-18, 5μ particle size.
Mobile phase: Acetonitrile/0.01 M phosphate buffer (155/845 v/v), pH 6.
Detection: UV absorbance at 220 nm (~2200 Å). Results were quantified by comparison with standard solutions kept frozen during the tests. Peak heights were measured for replicate injections.
By use of the Arrhenius equation, [formula] where k is the specific reaction velocity, T is the absolute temperature (°K.), A is the activation energy constant, t is time, and R is the gas law constant, change in the rate of a first-order chemical reaction with temperature can be calculated. The half-life of (II) at ambient temperature and pH 6.9 is estimated to be 760 days (>2 yrs).

[10] = in words; cited from earlier work; remark: listed apart in the source
[11] = pH 3.5, .02M Phosphate Buffer at 54° C.
[12] = pH 7, .02M Phosphate Buffer at 54° C.

## COC(=O)[C@H](Cc1ccccc1)NC(=O)[C@@H](N)CC(=O)O [Aspartame, L-aspartyl-L-phenylalanine methyl ester] (H-Asp-Phe-OMe)
[1]
  Relative rate of amide bond cleavage: 100
[2]
  hydrolysis by gut enzymes: readily converted to L-aspartic acids by enzymes in the gut
[3]
  Relative rate of amide bond cleavage: 157
[4]; 40° C.
  half-life: 68 days
[4]; 55° C.
  half-life: 16 days
[4]; in words
  stability in aqueous media: hydrolyzes rapidly in aqueous media to non-sweet compounds
[4]; pH 3.5, 54° C., comparable data from literature
  % Remaining After 15 Days: 50%
[4]; pH 7, 54° C., at 1 day, comparable data from literature
  % Remaining: 0%
[5]
  taste: high quality sweetness; also recorded: free of unpleasant aftertaste

## CCCCCCNC(=O)[C@@H](N)CC(=O)O [hexyl]
[5]
  sweetness intensity: 1-2 X sucrose
  taste: sweet

## CC(C)CC[C@@H](CO)NC(=O)[C@@H](N)CC(=O)O
[1]
  Relative rate of amide bond cleavage: 35
[3]
  Relative rate of amide bond cleavage: 103

## CCCC(CC)NC(=O)[C@@H](N)CC(=O)O (some centres unmarked) [Compound 1-ethylbutyl]
[5]
  taste: bitter

## N[C@@H](CC(=O)O)C(=O)N[C@H](CO)Cc1ccccc1
[1]
  Relative rate of amide bond cleavage: 19

## O=C1NS(=O)(=O)c2ccccc21 [saccharin]
[5]
  taste: bitter aftertaste

## COc1ccc(CCC(=O)c2c(O)cc(O[C@@H]3O[C@H](CO)[C@@H](O)[C@H](O)[C@H]3O[C@@H]3O[C@@H](C)[C@H](O)[C@@H](O)[C@H]3O)cc2O)cc1O [Neohesperidin dihydrochalcone]
[5]
  taste: the sweetness is slow to develop and it has a licorice-like aftertaste

## CCCCCCCNC(=O)[C@@H](N)CC(=O)O [heptyl]
[5]
  sweetness intensity: 1-2 X sucrose
  taste: sweet

## CC(C)CCCNC(=O)[C@@H](N)CC(=O)O [4-methylpentyl]
[5]
  taste: tasteless

## CC(C)CC[C@H](NC(=O)[C@@H](N)CC(=O)O)[C@H](C)O [Compound II, (S)-3-amino-4-[(S,S)-1-(1-hydroxyethyl)-4-methyl-pentylamino]-4-oxo-butyric acid]
[1]
  Relative rate of amide bond cleavage: 0
[6]; Lemonade
  sweetness intensity: 85 × sucrose
[6]; Water
  sweetness intensity: 60 × sucrose
[6]; at an 8% sucrose sweetness level
  sweetness relative to sucrose: approximately 60 times
[6]
  taste / sweetness quality: sweetness quality comparable to sucrose; also recorded: sweet in both aqueous solution and granular form
[6]; listed as (S,S,S) compound
  taste / sweetness quality: sweet
[3]
  Relative rate of amide bond cleavage: 0
[7]; Water, pH 7, 20° C.
  solubility: 30 to 40 mg/mL (≈ 115 to 154 mM)
[7]; Water
  Calculated Maximum Effective Sweetening Power: 180-240 g % sucrose equivalent
[7]; in words
  solubility in water: surprisingly soluble in water
[7]; lemonade
  Calculated Maximum Effective Sweetening Power: 255-340 g % sucrose equivalent
[7]; lemonade, ditto mark
  solubility: 30 to 40 mg/mL (≈ 115 to 154 mM)
[8]
  resistance to enzymatic hydrolysis: resistant to enzymatic hydrolysis
[9]; pH 3.5, 54° C., pH start 3.5 (end 4.3)
  half-life: 57 days
[9]; pH 3.5, 66° C., pH start 3.5 (end 4.8)
  half-life: 17 days
[9]; pH 6.9, 43° C., pH start 6.9 (end 6.8)
  half-life: 148 days
[9]; pH 6.9, 54° C., pH start 6.9 (end 6.09)
  half-life: 64 days
[9]; pH 6.9, 66° C., pH start 6.9 (end 7.5)
  half-life: 22 days
[9]; [11]
  remaining at 360 h: 82%
[9]; [12]
  remaining at 360 h: 86%
[9]; in words
  stability in aqueous media: stable in moderately alkaline, neutral and moderately acidic aqueous media
[9]; log (% (II) intact) versus time
  reaction order of hydrolysis: consistent with a reaction following first order kinetics

## CCCCCC(CO)NC(=O)[C@@H](N)CC(=O)O (some centres unmarked)
[1]
  Relative rate of amide bond cleavage: 35

## CC(C)C[C@@H](CO)NC(=O)[C@@H](N)CC(=O)O
[1]
  Relative rate of amide bond cleavage: 11

## CCCCCC(C)NC(=O)[C@@H](N)CC(=O)O (some centres unmarked) [1-methylhexyl]
[5]
  sweetness intensity: 20-50 X sucrose
  taste: sweet

## CCCCCCC(C)NC(=O)[C@@H](N)CC(=O)O (some centres unmarked) [1-methylheptyl]
[5]
  sweetness intensity: 10 X sucrose
  taste: sweet

## CCC(C)CC(C)NC(=O)[C@@H](N)CC(=O)O (some centres unmarked) [1,3-dimethylpentyl]
[5]
  sweetness intensity: 1-2 X sucrose
  taste: sweet

## CCCC(C)NC(=O)[C@@H](N)CC(=O)O (some centres unmarked) [1-methylbutyl]
[5]
  taste: tasteless

## CC(C)CCCC(C)NC(=O)[C@@H](N)CC(=O)O (some centres unmarked)
[1]
  Relative rate of amide bond cleavage: 38
[3]
  Relative rate of amide bond cleavage: 68

## CC(C)CCC(C)NC(=O)[C@@H](N)CC(=O)O (some centres unmarked) [1,4-dimethylpentyl]
[5]
  sweetness intensity: 50-100 X sucrose
  taste: sweet

## N[C@@H](CC(=O)O)C(=O)Nc1ccc2ccccc2c1
[1]
  Relative rate of amide bond cleavage: 4

## CCCCC(C)NC(=O)[C@@H](N)CC(=O)O (some centres unmarked) [1-methylpentyl]
[5]
  sweetness intensity: 30 X sucrose
  taste: sweet

## CC(C)CC(C)NC(=O)[C@@H](N)CC(=O)O (some centres unmarked) [1,3-dimethylbutyl]
[5]
  taste: bitter

## CC(C)CCC(CO)NC(=O)[C@@H](N)CC(=O)O (some centres unmarked)
[9]; [11]
  remaining at 360 h: 88%
[9]; [12]
  remaining at 360 h: 72%

## CC(C)CCCC(C)N (centres unmarked) [1,5-dimethylhexylamine]
[10]
  pharmacological activity: vasopressor and myocardial stimulant activity
